Target: T1, human B2 bradykinin receptors (Homo sapiens, UniProt P30411)
T1 construct: purchased Receptor Biology, Inc. (Baltimore, MD); host or cells: CHO-K1 cells transfected with the human B2 receptor (membranes)
T1 sequence (P30411 1-391): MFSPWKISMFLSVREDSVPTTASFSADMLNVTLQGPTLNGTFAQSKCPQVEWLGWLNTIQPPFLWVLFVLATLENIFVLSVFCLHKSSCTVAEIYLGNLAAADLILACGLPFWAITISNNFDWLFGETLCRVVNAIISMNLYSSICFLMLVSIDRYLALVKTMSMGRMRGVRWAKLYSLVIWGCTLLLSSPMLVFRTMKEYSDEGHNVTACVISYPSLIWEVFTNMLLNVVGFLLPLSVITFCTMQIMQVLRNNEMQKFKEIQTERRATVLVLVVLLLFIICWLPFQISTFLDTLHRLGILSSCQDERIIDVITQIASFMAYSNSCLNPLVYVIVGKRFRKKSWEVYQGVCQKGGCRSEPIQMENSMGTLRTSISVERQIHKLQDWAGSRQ
Test: Bradykinin B2 (BK2) Receptor Binding Assay
Conditions: membranes of CHO-K1 cells transfected with human B2 bradykinin receptors; ~0.25 nM [3H]NPC17731; 60 min at 25°C
Procedure: Cell membranes of CHO-K1 cells transfected with human B2 bradykinin receptors (CH)-hB2) were purchased from Receptor Biology, Inc. (Baltimore,MD).
Samples were harvested on a Brandel Cell Harvester on to Wallac filtermat B sheets (96 sample format), and washed three times with 2 mL cold HEPES-buffer (10 mM, pH 7.5), and dried in a microwave oven.
The data were used to calculate either the % inhibition compared to control binding (when only a single concentration of test compound was evaluated) or a Ki value (when a range of concentrations were tested). Background was subtracted from mean cpm values and % inhibition was calculated as: [(total dpm-test compound dpm)/(total dpm-nonspecific dpm)]x100. Kd and Ki values were calculated using GraphPad PRISM data analysis program.

Ki [µM] | Compound
0.09 | 2-(5-Benzoyl-thiophen-2-yl)-N-[2,4-dimethyl-3-(2-methyl-quinolin-8-yloxymethyl)-phenyl]-N-methyl-acetamide [Compound 108]
2.91 | Cc1ccc2cccc(OCc3c(Cl)ccc(N(C)C(=O)Cc4cc(C(=O)c5ccc(S(C)(=O)=O)cc5)cn4C)c3Cl)c2n1 [Compound 1, N-[2,4-Dichloro-3-(2-methyl-quinolin-8-yloxymethyl)-phenyl]-2-[4-(4-methanesulfonyl-benzoyl)-1-methyl-1 H-pyrrol-2-yl]-N-methyl-acetamide]
0.518 | COc1ccc(C(=O)c2cc(CC(=O)N(C)c3ccc(Cl)c(COc4cccc5ccc(C)nc45)c3Cl)n(C)c2)cc1 [Compound 2, N-[2,4-Dichloro-3-(2-methyl-quinolin-8-yloxymethyl)-phenyl]-2-[4-(4-methoxybenzoyl)-1-methyl-1 H-pyrrol-2-yl]-N-methyl-acetamide]
0.532 | CCn1cc(CC(=O)N(C)c2ccc(Cl)c(COc3cccc4ccc(C)nc34)c2Cl)cc1C(=O)c1ccc(C#N)cc1 [Compound 3, 2-[5-(4-Cyano-benzoyl)-1-ethyl-1H-pyrrol-3-yl]-N-[2,4-dichloro-3-(2-methyl-quinolin-8-yloxymethyl)phenyl]-N-methyl-acetamide]
0.041 | Cc1ccc2cccc(OCc3c(Cl)ccc(N(C)C(=O)Cc4ccc(C(=O)c5ccc(C#N)cc5)[nH]4)c3Cl)c2n1 [Compound 6, 2-[5-(4-Cyano-benzoyl)-1 H-pyrrol-2-yl]-N-[2,4-dichloro-3-(2-methyl-quinolin-8-yloxymethyl)-phenyl]-N-methyl-acetamide]
3.89 | CCCN(C(=O)Cc1ccc(C(=O)c2ccc(C#N)cc2)n1C)c1ccc(Cl)c(COc2cccc3ccc(C)nc23)c1Cl [Compound 19, 2-[5-(4-Cyano-benzoyl)-1-methyl-1H-pyrrol-2-yl]-N-[2,4-dichloro-3-(2-methyl-quinolin-8-yloxymethyl)-phenyl]-N-propyl-acetamide]
0.514 | C=CCN(C(=O)Cc1ccc(C(=O)c2ccc(C#N)cc2)n1C)c1ccc(Cl)c(COc2cccc3ccc(C)nc23)c1Cl [Compound 21]
5.43 | CCCCCC(=O)c1ccc(CC(=O)N(C)c2ccc(Cl)c(COc3cccc4ccc(C)nc34)c2Cl)n1C [Compound 23, N-[2,4-Dichloro-3-(2-methyl-quinolin-8-yloxymethyl)-phenyl]-2-(5-hexanoyl-1-methyl-1H-pyrrol-2-yl)-N-methyl-acetamide]
5.35 | Cc1ccc2cccc(OCc3c(Cl)ccc(N(C)C(=O)Cc4ccc(C(=O)CN(C)c5ccccc5)n4C)c3Cl)c2n1 [Compound 24]
4.18 | Cc1ccc2cccc(OCc3c(Cl)ccc(N(C)C(=O)Cc4ccc(C(=O)c5ccc(Cl)s5)n4C)c3Cl)c2n1 [Compound 25]
4.05 | Cc1ccc2cccc(OCc3c(Cl)ccc(N(C)C(=O)Cc4ccc(C(=O)c5ccc6ccccc6c5)n4C)c3Cl)c2n1 [Compound 26]
3.8 | Cc1ccc2cccc(OCc3c(Cl)ccc(N(C)C(=O)Cc4ccc(C(=O)C=Cc5ccccc5)n4C)c3Cl)c2n1 [Compound 27]
2.37 | Cc1ccc2cccc(OCc3c(Cl)ccc(N(C)C(=O)Cc4ccc(C(=O)Cc5ccccc5)n4C)c3Cl)c2n1 [Compound 28]
2.29 | Cc1ccc2cccc(OCc3c(Cl)ccc(N(C)C(=O)Cc4ccc(C(=O)c5ccccc5)n4C)c3Cl)c2n1 [Compound 29]
1.79 | Cc1ccc2cccc(OCc3c(Cl)ccc(N(C)C(=O)Cc4ccc(C(=O)C5CCCCC5)n4C)c3Cl)c2n1 [Compound 30]
1.71 | Cc1ccc2cccc(OCc3c(Cl)ccc(N(C)C(=O)Cc4ccc(C(=O)C(C)(C)C)n4C)c3Cl)c2n1 [Compound 31]
1.53 | Cc1ccc2cccc(OCc3c(Cl)ccc(N(C)C(=O)Cc4ccc(C(=O)C5CC5)n4C)c3Cl)c2n1 [Compound 32]
1.39 | Cc1ccc2cccc(OCc3c(Cl)ccc(N(C)C(=O)Cc4ccc(C(=O)c5cccnc5)n4C)c3Cl)c2n1 [Compound 33]
1.15 | Cc1ccc2cccc(OCc3c(Cl)ccc(N(C)C(=O)Cc4ccc(C(=O)c5ccc(F)cc5)n4C)c3Cl)c2n1 [Compound 34]
1.05 | Cc1ccc2cccc(OCc3c(Cl)ccc(N(C)C(=O)Cc4ccc(C(=O)c5ccc(Br)cc5)n4C)c3Cl)c2n1 [Compound 35]
0.869 | CC(=O)Nc1ccccc1C(=O)c1ccc(CC(=O)N(C)c2ccc(Cl)c(COc3cccc4ccc(C)nc34)c2Cl)n1C [Compound 36]
0.846 | Cc1ccc2cccc(OCc3c(Cl)ccc(N(C)C(=O)Cc4ccc(C(=O)CN5CCCC5)n4C)c3Cl)c2n1 [Compound 37]
0.807 | Cc1ccc2cccc(OCc3c(Cl)ccc(N(C)C(=O)Cc4ccc(C(=O)c5cccc6ccccc56)n4C)c3Cl)c2n1 [Compound 38]

Ki [µM] | Compound
0.784 | CC(C)=CC(=O)c1ccc(CC(=O)N(C)c2ccc(Cl)c(COc3cccc4ccc(C)nc34)c2Cl)n1C [Compound 39]
0.752 | Cc1ccc2cccc(OCc3c(Cl)ccc(N(C)C(=O)Cc4ccc(C(=O)c5ccc(Cl)cc5)n4C)c3Cl)c2n1 [Compound 40]
0.704 | Cc1ccc2cccc(OCc3c(Cl)ccc(N(C)C(=O)Cc4ccc(C(=O)c5ccc(C)s5)n4C)c3Cl)c2n1 [Compound 41]
0.688 | Cc1ccc2cccc(OCc3c(Cl)ccc(N(C)C(=O)Cc4ccc(C(=O)c5cccc([N+](=O)[O-])c5)n4C)c3Cl)c2n1 [Compound 42]
0.68 | CSc1ccc(C(=O)c2ccc(CC(=O)N(C)c3ccc(Cl)c(COc4cccc5ccc(C)nc45)c3Cl)n2C)s1 [Compound 43]
0.643 | Cc1ccc2cccc(OCc3c(Cl)ccc(N(C)C(=O)Cc4ccc(C(=O)c5cccc(C#N)c5)n4C)c3Cl)c2n1 [Compound 44]
0.579 | Cc1ccc2cccc(OCc3c(Cl)ccc(N(C)C(=O)Cc4ccc(C(=O)c5ccccn5)n4C)c3Cl)c2n1 [Compound 45]
0.56 | Cc1ccc2cccc(OCc3c(Cl)ccc(N(C)C(=O)Cc4ccc(C(=O)c5ccc(CN6CCCC6)cc5)n4C)c3Cl)c2n1 [Compound 46, N-[2,4-Dichloro-3-(2-methyl-quinolin-8-yloxymethyl)-phenyl]-N-methyl-2-[l-methyl-5-(4-pyrrolidin-1-ylmethyl-benzoyl)-1H-pyrrol-2-yl]-acetamide]
0.515 | Cc1ccc2cccc(OCc3c(Cl)ccc(N(C)C(=O)Cc4ccc(C(=O)c5ccc(CN(C)C)cc5)n4C)c3Cl)c2n1 [Compound 47]
0.51 | CCN(CC)CC(=O)c1ccc(CC(=O)N(C)c2ccc(Cl)c(COc3cccc4ccc(C)nc34)c2Cl)n1C [Compound 48]
0.508 | Cc1ccc2cccc(OCc3c(Cl)ccc(N(C)C(=O)Cc4ccc(C(=O)CN(C)c5ccccn5)n4C)c3Cl)c2n1 [Compound 49]
0.583 | Cc1ccc2cccc(OCc3c(Cl)ccc(N(C)C(=O)Cc4ccc(C(=O)c5ccc6c(c5)OCO6)n4C)c3Cl)c2n1 [Compound 50]
0.476 | Cc1ccc2cccc(OCc3c(Cl)ccc(N(C)C(=O)Cc4ccc(C(=O)c5ccc(C(F)(F)F)cc5)n4C)c3Cl)c2n1 [Compound 51]
0.427 | Cc1ccc2cccc(OCc3c(Cl)ccc(N(C)C(=O)Cc4ccc(C(=O)c5cnc(Cl)c(Cl)c5)n4C)c3Cl)c2n1 [Compound 52]
0.393 | Cc1ccc2cccc(OCc3c(Cl)ccc(N(C)C(=O)Cc4ccc(C(=O)c5ccccc5N)n4C)c3Cl)c2n1 [Compound 53]
0.356 | Cc1ccc(C(=O)c2ccc(CC(=O)N(C)c3ccc(Cl)c(COc4cccc5ccc(C)nc45)c3Cl)n2C)cc1 [Compound 54]
0.341 | Cc1ccc2cccc(OCc3c(Cl)ccc(N(C)C(=O)Cc4ccc(C(=O)c5ccsc5)n4C)c3Cl)c2n1 [Compound 55]
0.406 | Cc1ccc2cccc(OCc3c(Cl)ccc(N(C)C(=O)Cc4ccc(C(=O)c5ccc(N)cc5)n4C)c3Cl)c2n1 [Compound 56, 2-[5-(4-Amino-benzoyl)-methyl-1H-pyrrol-2-yl]-N-[2,4-dichloro-3-(2-methyl-quinolin-8-yloxymethyl)-phenyl]-N-methyl-acetamide]
0.361 | Cc1ccc2cccc(OCc3c(Cl)ccc(N(C)C(=O)Cc4ccc(C(=O)c5cccc(N)c5)n4C)c3Cl)c2n1 [Compound 57]
0.162 | Cc1ccc2cccc(OCc3c(Cl)ccc(N(C)C(=O)Cc4ccc(C(=O)c5ccc(S(N)(=O)=O)cc5)n4C)c3Cl)c2n1 [Compound 70]
0.309 | CCOc1ccc(C(=O)c2ccc(CCC(=O)N(C)c3ccc(C)c(COc4cccc5ccc(C)nc45)c3C)n2C)cn1 [Compound 86]
0.143 | CCOc1ccc(C(=O)c2ccc(CCC(=O)N(C)c3ccc(Cl)c(COc4cccc5ccc(C)nc45)c3Cl)n2C)cn1 [Compound 87]
2.12 | COc1ccc(-c2ccc(CC(=O)N(C)c3ccc(C)c(COc4cccc5ccc(C)nc45)c3C)n2C)cc1 [Compound 96, N-[2,4-Dimethyl-3-(2-methyl-quinolin-8-yloxymethyl)-phenyl]-2-[5-(4-methoxyphenyl)-1-methyl-1H-pyrrol-2-yl]-N-methyl-acetamide]

From patent EP1914236A1 (Ortho-McNeil Pharmaceutical, Inc., priority 2002, dated 2003)
